Substitutions are numbered along the chain they refer to.
B1: mouse MR1 refolded with 6-FP: tetramers from mouse MR1 (BirA peptide-tagged) refolded with 6-FP (protein, UniProt Q8HWB0 19-341, looked up)
Major histocompatibility …: RTHSLRYFRLAVSDPGPVVPEFISVGYVDSHPITTYDSVTRQKEPKAPWMAENLAPDHWERYTQLLRGWQQTFKAELRHLQRHYNHSGLHTYQRMIGCELLEDGSTTGFLQYAYDGQDFIIFNKDTLSWLAMDYVAHITKQAWEANLHELQYQKNWLEEECIAWLKRFLEYGRDTLERTEHPVVRTTRKETFPGITTFFCRAHGFYPPEISMTWMKNGEEIAQEVDYGGVLPSGDGTYQTWLSVNLDPQSNDVYSCHVEHCGRQMVLEAPRESGDILRVSTISGTTILIIALAGVGVLIWRRSQELKEVMYQPTQVNEGSSPS
modifications: BirA tag, tetramer, 6-FP ligand
B2: rRL-6-CH2OH-loaded mouse Lys43Ala-MR1: tetramers of mouse Lys43Ala-MR1 loaded with rRL-6-CH2OH (protein, UniProt Q8HWB0 19-341, looked up, variant K43A)
Major histocompatibility …: B1 Major histocompatibility … with K43A
modifications: tetramer loaded with rRL-6-CH2OH
notes: tetramers of mouse Lys43Ala-MR1 loaded with rRL-6-CH2OH

Assays:
MR1 = biological target: T1, MR1 (Homo sapiens, UniProt Q95460); assay: Refolding of denatured MR1 and β2m with ligands; format: binding; details: substance added to MR1/β2m refold
T1 construct: soluble human MR1 (residues 1-270 of the mature, leaderless protein); made in house
Description: Genes encoding soluble human MR1 (residues 1-270 of the mature, leaderless protein, lacking the transmembrane and cytoplasmic domains); or human β2m (mature, leaderless protein) were expressed for four hours in BL21 E. coli following induction with 1 mM isopropyl β-D-1-thiogalactopyranoside. E. coli were pelleted and resuspended in a buffer containing 50 mM Tris, 25% (w/v) sucrose, 1 mM EDTA, 10 mM DTT pH 8.0. Inclusion body protein was then extracted by lysis of bacteria in a buffer containing 50 mM Tris pH 8.0, 1% (w/v) Triton X-100, 1% (w/v) sodium deoxycholate, 100 mM NaCl, 10 mM DTT, 5 mM MgCl2, and 1 mg DnaseI per liter of starting culture; and subsequent steps involved homogenization with a polytron homogenizer, centrifugation, and washing inclusion body protein sequentially with firstly a buffer containing 50 mM Tris pH 8, […], 100 mM NaCl, 1 mM EDTA, 1 mM DTT, and secondly a buffer containing 50 mM Tris pH 8.0, 1 mM EDTA, 1 mM DTT. Inclusion body protein was then resuspended in a buffer containing 20 mM Tris pH 8.0, 8 M urea, 0.5 mM EDTA, 1 mM DTT, and following centrifugation the supernatant containing solubilized, denatured inclusion body protein was collected and stored at −80° C.
2 mg of 6-formyl pterin, 56 mg of denatured inclusion body MR1 protein, and 28 mg of β2m protein were added to a 400 ml refold buffer solution containing 0.1 M Tris pH 8.5, 2 mM EDTA, 0.4 M arginine, 0.5 mM oxidized glutathione, 5 mM reduced glutathione. Variably, 5M urea was either present or absent. Following an overnight incubation at 4° C., the refold buffer was dialysed against 3 changes of buffer containing 10 mM Tris, pH8.0 over a period of 24 hours. Refolded MR1-β2m-ligand complex was then purified by sequential DEAE (GE Healthcare) anion exchange, S75 16/60 (GE Healthcare) gel filtration, and MonoQ (GE Healthcare) anion exchange chromatography.

MAIT cells = assay: Re-presentation assay: refolded soluble MR1 added to antigen presenting cells expressing MR1 and MAIT cells; format: cell-based; details: MR1 refolded with the named substance
Jurkat.MAIT cells = assay: Activation of Jurkat.MAIT cells (CD69) with C1R antigen presenting cells expressing MR1; format: cell-based, human
Description: Jurkat cells transduced with a MAIT TCR comprising the TRAV1-2+TRAJ33 invariant α chain, and a TRBV6-1 β chain were tested for activation by addition of Salmonella supernatant to C1R antigen presenting cells expressing MR1 for 16 hours. Jurkat.MAIT cells were subsequently stained with PE-conjugated anti-CD3, and APC-conjugated anti-CD69 antibodies before analysis by flow cytometry. Activation of Jurkat.MAIT cells was measured by an increase in surface CD69 expression. Compounds to be tested for the ability to activate Jurkat.MAIT cells were tested alongside Salmonella supernatant.
A biological assay for the activation of MAIT T cell receptor (TCR)-expressing T cell lines (into which genes encoding the MAIT TCR alpha and beta chains had been introduced), by antigen presenting cells (expressing MR1 on the cell surface) infected with the bacterium Salmonella typhimurium has been established. This assay measures the increase in expression of the cell surface activation marker, CD69, upon activation of MAIT T cells.

human PBMC MAIT cells = assay: MR1 tetramer staining of human PBMCs (flow cytometry); format: cell-based; details: PE-streptavidin tetramers; D5, CD161 co-staining
Description: Biotinylated MR1 (produced in either of the 2 methods mentioned above) is used to make tetramers by the addition of biotinylated MR1 to PE Streptavidin (#554061, BD Pharmingen) in a 4:1 molar ratio. PE Streptavidin is added sequentially in 1/10 aliquots to biotinylated MR1 at 10 minute intervals to ensure efficient tetramization.
Human MAIT cells are identified as being D5-positive (D5 mAb stains Vα7.2,-positive T cells; Vα7.2 is the invariant Vα-chain utilized by human MAIT cells) and CD161-positive. Human PBMCs were stained with CD3-PE-Cy7, CD8-PerCP, CD4-APC-Cy7, CD161-APC specific mAbs; as well as the anti-Vα7.2-FITC mAb D5 (generated in-house; human MAIT cells utilize the Vα7.2 alpha chain) and PE-labeled tetramers of mouse MR1-β2m-acetyl-6-Formyl Pterin (mouse MR1 had been refolded with either 6-formyl pterin or acetyl-6-formyl pterin).

T1 sequence (Q95460 23-292): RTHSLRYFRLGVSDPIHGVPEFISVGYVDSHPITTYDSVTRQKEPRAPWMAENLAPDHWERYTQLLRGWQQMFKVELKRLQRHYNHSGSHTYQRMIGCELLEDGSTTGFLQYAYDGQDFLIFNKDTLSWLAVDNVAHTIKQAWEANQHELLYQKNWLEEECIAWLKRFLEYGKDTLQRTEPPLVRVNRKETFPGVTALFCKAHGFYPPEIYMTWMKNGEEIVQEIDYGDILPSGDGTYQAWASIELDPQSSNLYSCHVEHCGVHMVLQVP
T1 sequence (P61769 21-119 partner): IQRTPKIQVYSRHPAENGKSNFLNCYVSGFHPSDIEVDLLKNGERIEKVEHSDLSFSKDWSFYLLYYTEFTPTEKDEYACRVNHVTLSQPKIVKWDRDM

| Molecule | Ability to refold MR1 into native MR1-β2m complex (MR1) | Tetramer staining of human PBMC MAIT cells (human PBMC MAIT cells) | also measured |
| --- | --- | --- | --- |
| Cc1nc2nc(N)[nH]c(=O)c2nc1C [6-7-dimethylpterin] | inability | – | – |
| Nc1nc2ncc(CNc3ccc(C(=O)N[C@@H](CCC(=O)O)C(=O)O)cc3)nc2c(=O)[nH]1 [Folic acid] | yielded significant amounts of native MR1 | – | Activation of MAIT cells by MR1 refolded with the substance (re-presentation assay) (MAIT cells): failed to activate; Activation of MAIT cells by MR1 refolded with the substance (re-presentation assay) (MAIT cells; listed as folic acid): non-stimulatory |
| Nc1nc2nccnc2c(=O)[nH]1 [pterin] | inability | – | – |
| Cc1cc2nc3c(=O)[nH]c(=O)nc-3n(C[C@H](O)[C@H](O)[C@H](O)CO)c2cc1C [riboflavin, reference compound] | did not form MR1-β2m complexes | – | Activation of Jurkat.MAIT cells (increase in surface CD69) (Jurkat.MAIT cells): did not |
| human Leucine151Alanine MR1 refolded with acetyl-6-FP: tetramers from human Leucine151Alanine MR1 (BirA peptide-tagged) refolded with acetyl-6-FP | – | stain a proportion | – |
| human wild-type MR1 refolded with 6-FP: control tetramers from human wild-type MR1 refolded with 6-FP | – | fail to stain | – |
| B1 | – | can stain a proportion | – |
| B2 | – | identify a CD161-positive, D5-positive population | – |

From US10011602B2, “Immunological reagents and uses therefor” (THE UNIVERSITY OF MELBOURNE, priority 2012, dated 2018)
